Experimental data reported in paper PMC10866072, “Design, synthesis, molecular modelling and biological evaluation of novel 6-amino-5-cyano-2-thiopyrimidine derivatives as potent anticancer agents against leukemia and apoptotic inducers” (Journal of Enzyme Inhibition and Medicinal Chemistry, 2024).

Experiments:
COLO 205 = format: cell-based; details: Homo sapiens, one dose 10^-5 M, 48 h
KM12 = format: cell-based; details: Homo sapiens, one dose 10^-5 M, 48 h
TK-10 = format: cell-based; details: Homo sapiens, one dose 10^-5 M, 48 h
NCI-H23 = format: cell-based; details: Homo sapiens, one dose 10^-5 M, 48 h, read-out: % growth
UO-31 = format: cell-based; details: Homo sapiens, UO-31, 48 h, one dose 10^-5 M, 48 h
BT-549 = format: cell-based; details: Homo sapiens, one dose 10^-5 M, 48 h
U251 = format: cell-based; details: Homo sapiens, U-251, one dose 10^-5 M, 48 h
HS 578T = format: cell-based; details: Homo sapiens; one dose 10^-5 M, 48 h; HS 578T; read-out: % growth
OVCAR-5 = format: cell-based; details: Homo sapiens, one dose 10^-5 M, 48 h
OVCAR-8 = format: cell-based; details: Homo sapiens, one dose 10^-5 M, 48 h
NCI/ADR-RES = format: cell-based; details: Homo sapiens, one dose 10^-5 M, 48 h
OVCAR-4 = format: cell-based; details: Homo sapiens, one dose 10^-5 M, 48 h
IGROV1 = format: cell-based; details: Homo sapiens, IGROV-1, one dose 10^-5 M, 48 h, read-out: % growth
[1] = tested on: full NCI 60 cell lines panel
MDA-MB-231/ATCC = format: cell-based; details: Homo sapiens, one dose 10^-5 M, 48 h
RPMI-8226 = format: cell-based; details: Homo sapiens, one dose 10^-5 M, 48 h
SK-OV-3 = format: cell-based; details: Homo sapiens, one dose 10^-5 M, 48 h
SR = format: cell-based; details: Homo sapiens, one dose 10^-5 M, 48 h
T-47D = format: cell-based; details: Homo sapiens, T47D, one dose 10^-5 M, 48 h, read-out: % growth
CCRF-CEM = format: cell-based; details: Homo sapiens, one dose 10^-5 M, 48 h
OVCAR-3 = format: cell-based; details: Homo sapiens, one dose 10^-5 M, 48 h
SNB-19 = format: cell-based; details: Homo sapiens, one dose 10^-5 M, 48 h, read-out: % growth
ACHN = format: cell-based; details: Homo sapiens, one dose 10^-5 M, 48 h
SW-620 = format: cell-based; details: Homo sapiens, one dose 10^-5 M, 48 h
UACC-62 = format: cell-based; details: Homo sapiens, one dose 10^-5 M, 48 h
MCF7 = format: cell-based; details: Homo sapiens, one dose 10^-5 M, 48 h, read-out: % growth
CAKI-1 = format: cell-based; details: Homo sapiens, CAKI-1, 48 h, one dose 10^-5 M, 48 h
EKVX = format: cell-based; details: Homo sapiens, one dose 10^-5 M, 48 h
SF-268 = format: cell-based; details: Homo sapiens, one dose 10^-5 M, 48 h, read-out: % growth
MOLT-4 = format: cell-based; details: Homo sapiens, one dose 10^-5 M, 48 h, read-out: % growth
SK-MEL-5 = format: cell-based; details: Homo sapiens, one dose 10^-5 M, 48 h, read-out: % growth
NCI-H460 = format: cell-based; details: Homo sapiens, one dose 10^-5 M, 48 h, read-out: % growth
NCI-H226 = format: cell-based; details: Homo sapiens, one dose 10^-5 M, 48 h
786-0 = format: cell-based; details: Homo sapiens, one dose 10^-5 M, 48 h
MDA-MB-435 = format: cell-based; details: Homo sapiens, one dose 10^-5 M, 48 h, read-out: % growth
SK-MEL-2 = format: cell-based; details: Homo sapiens, one dose 10^-5 M, 48 h
A549/ATCC = format: cell-based; details: Homo sapiens, one dose 10^-5 M, 48 h
NCI-H522 = format: cell-based; details: Homo sapiens, one dose 10^-5 M, 48 h
SF-295 = format: cell-based; details: Homo sapiens, one dose 10^-5 M, 48 h
M14 = format: cell-based; details: Homo sapiens, one dose 10^-5 M, 48 h
LOX IMVI = format: cell-based; details: Homo sapiens, one dose 10^-5 M, 48 h, read-out: % growth
HOP-92 = format: cell-based; details: Homo sapiens, one dose 10^-5 M, 48 h
HCT-116 = format: cell-based; details: Homo sapiens, one dose 10^-5 M, 48 h, read-out: % growth
HT29 = format: cell-based; details: Homo sapiens, HT-29, one dose 10^-5 M, 48 h
HOP-62 = format: cell-based; details: Homo sapiens, one dose 10^-5 M, 48 h
HCT-15 = format: cell-based; details: Homo sapiens, one dose 10^-5 M, 48 h, read-out: % growth
K-562 = format: cell-based; details: Homo sapiens, K562, one dose 10^-5 M, 48 h
SNB-75 = format: cell-based; details: Homo sapiens, one dose 10^-5 M, 48 h
PC-3 = format: cell-based; details: Homo sapiens, one dose 10^-5 M, 48 h
MALME-3M = format: cell-based; details: Homo sapiens, one dose 10^-5 M, 48 h
UACC-257 = format: cell-based; details: Homo sapiens, one dose 10^-5 M, 48 h
HL-60(TB) = format: cell-based; details: Homo sapiens, one dose 10^-5 M, 48 h
SN12C = format: cell-based, human; details: Homo sapiens, one dose 10^-5 M, 48 h
DU-145 = format: cell-based; details: Homo sapiens, one dose 10^-5 M, 48 h
MDA-MB-468 = format: cell-based; details: Homo sapiens, one dose 10^-5 M, 48 h
SF-539 = format: cell-based; details: Homo sapiens, one dose 10^-5 M, 48 h
A498 = format: cell-based; details: Homo sapiens, one dose 10^-5 M, 48 h
HCC-2998 = format: cell-based; details: Homo sapiens, one dose 10^-5 M, 48 h
SK-MEL-28 = format: cell-based; details: Homo sapiens, one dose 10^-5 M, 48 h

COc1ccc(/C=N\NC(=N)c2c(N)nc(S)nc2-c2ccc(N(C)C)cc2)cc1 [Compound 4d, 4-amino-N'-[(1Z)-(4-methoxyphenyl)methylene]-6-[4-(dimethylamino)phenyl]-2-mercapto pyrimidine-5-carboximidohydrazide]
% growth at 10 µM (COLO 205): 118% | % growth at 10 µM (KM12): 93.2% | % cell growth at 10 µM (TK-10): 103% | activity at 10 µM (NCI-H23): 103% | % cell growth at 10 µM (UO-31): 72% | % cell growth at 10 µM (BT-549): 102% | % growth at 10 µM (U251): 106% | activity at 10 µM (HS 578T): 112% | percent cell growth at 10 µM (OVCAR-5): 103% | % growth of cells at 10 µM (OVCAR-8): 104% | cell growth percent at 10 µM (NCI/ADR-RES): 107% | % growth at 10 µM (OVCAR-4): 96.8% | activity at 10 µM (IGROV1): 104% | activity at 10 µM ([1]; Homo sapiens, 60 cell, 48 h, read-out: Mean % growth): 101% | activity on all 60 cancer cell lines tested (in words) ([1]; one dose): weak activity | % growth at 10 µM (MDA-MB-231/ATCC): 103% | % growth at 10 µM (RPMI-8226): 86.5% | % growth at 10 µM (SK-OV-3): 110% | percent cell growth at 10 µM (SR): 102% | activity at 10 µM (T-47D): 98.7% | % cell growth at 10 µM (CCRF-CEM): 78.9% | % growth at 10 µM (OVCAR-3): 105% | activity at 10 µM (SNB-19): 101% | % growth at 10 µM (ACHN): 103% | % growth at 10 µM (SW-620): 103% | % growth at 10 µM (UACC-62): 94.3% | activity at 10 µM (MCF7): 95.2% | % growth at 10 µM (CAKI-1): 97.5% | % cell growth at 10 µM (EKVX): 99% | activity at 10 µM (SF-268): 97% | activity at 10 µM (MOLT-4): 101% | activity at 10 µM (SK-MEL-5): 102% | activity at 10 µM (NCI-H460): 106% | % growth at 10 µM (NCI-H226): 103% | % growth at 10 µM (786-0): 98.3% | activity at 10 µM (MDA-MB-435): 96.7% | % growth at 10 µM (SK-MEL-2): 109% | % growth at 10 µM (A549/ATCC): 103% | % growth at 10 µM (NCI-H522): 93.3% | % cell growth at 10 µM (SF-295): 104% | % growth at 10 µM (M14): 96.1% | activity at 10 µM (LOX IMVI): 101% | % growth at 10 µM (HOP-92): 109% | activity at 10 µM (HCT-116): 108% | % growth at 10 µM (HT29): 100% | % growth at 10 µM (HOP-62): 106% | activity at 10 µM (HCT-15): 98.2% | % growth at 10 µM (K-562): 101% | % growth at 10 µM (SNB-75): 101% | percent cell growth at 10 µM (PC-3): 88.5% | % growth at 10 µM (MALME-3M): 98.4% | percent cell growth at 10 µM (UACC-257): 106% | % growth at 10 µM (HL-60(TB)): 93.8% | % growth at 10 µM (SN12C): 100% | % growth at 10 µM (DU-145): 106% | percent cell growth at 10 µM (MDA-MB-468): 114% | % growth at 10 µM (SF-539): 108% | % growth at 10 µM (A498): 119% | % growth at 10 µM (HCC-2998): 108% | % cell growth at 10 µM (SK-MEL-28): 105%
